What was measured:
HNF4α pre-mRNA = test: RT-PCR of HNF4α mRNA, exon 9 skipping in BNL-CL2 liver cells; format: cell-based, mouse
Method: A mouse liver cell line, BNL-CL2, was grown at 37° C. and 5% CO2 in humidified atmosphere in Dulbecco's Modified Eagle's Medium supplemented with 10% inactivated FBS, 100 units.mL−1 penicillin, and 100 μg.mL−1 streptomycin, but without sodium pyruvate. To culture the cells with PNA, cells were seeded into a 96-well-plate, followed 16 h later by addition of 1 μM TPP-fluPNA alone or in an aqueous solution of 150 μM Chloroquine, and cultured for another 70 h. Images were acquired using a Zeiss inverted confocal microscope with 488 nm excitation wavelength light for tracking the TPP-fluPNA. Mitochondria specific dye MitoTracker Red CMXRos was added into cultured medium 2 h before taking confocal images using 578 nm excitation wavelength light.
Total RNA was extracted from cells cultured with either fluoresceinated or non-fluoresceinated TPP-PNA, or with PNA dissolved in 150 μM Chloroquine, or with medium controls for 24 h or 72 h. The concentration of extracted RNA was quantified using a NanoDrop spectrophotometer, and 1 μg of total RNA was reverse transcribed into cDNA using Invitrogen SuperScript III and random primers. […]. […]

PAX2 mRNA = test: Down regulation of PAX2 protein expression (western blot) in P388 cells; format: cell-based, mouse; details: 1 μM; for PAX2 protein expression: over 4 days
Method: Rabbit anti-PAX2 polyclonal antibody (Zymed) diluted 1:1000 in TBS, 0.1% fat free milk powder, 0.1% Tween-20 was used for PAX-2 detection following overnight incubation with the membrane. After 3×10 min washes in TBS, 0.1% Tween-20, horseradish peroxidase conjugated goat antirabbit IgG (1:10,000, Biorad) was used as a secondary antibody. To detect biotin, horse radish peroxidase conjugated extravidin (1:3,000, Sigma) was used. In both cases secondary antibody binding was carried out for 1 h at room temperature, followed by 3×10 min washes in TBS and visualized by chemiluminescence using a Pierce Super Signal R chemiluminescence substrate with Kodak X-OMAT™ AR imaging film.

[1] = test system: P388 leukemia cancer cells; test: General cell proliferation of treated P388 cells; format: cell-based, mouse; details: 1 μM
Text: To investigate the biological effects of the anti-PAX2 TPP-fluPNA conjugate we used a mouse cell line that highly expresses the PAX2 protein. […] This is most likely due to the absence of the cation that effectively delivers the PNA to the cells.

P388 cells = test: Gel/blot detection of PNA and phosphonium in fractions of conjugate-treated P388 cells; format: cell-based, mouse; details: after treatment with TPP-PNA, FIG. 5D
Method: Cells (143B, human fibroblasts, COS-7, P388 and IMCD) were grown at 37° C. and 5% CO2 in humidified atmosphere in Dulbecco's modified Eagle's medium supplemented with 10% inactivated foetal calf serum (FCS). All cell culture media contained 100 units.mL^−1 penicillin, and 100 μg.mL^−1 streptomycin. Protein was quantitated by the bicinchoninic acid assay. Cells were incubated with 1 μM TPP-PNA or with PNA alone for the indicated times. The disulfide bond in the TPP-PNA is stable in the oxidizing extracellular environment but is labile in the reducing cytoplasmic mulieu (FIG. 1).
For conjugate detection, 143B cell lysates treated with TPP-PNA conjugates (˜5 nmol) in 20 μL loading buffer (50 mM Tris, 4% SDS, 12% glycerol, 2% 2-mercaptoethanol, 0.01% coomassie brilliant blue) were separated on 18.5% Tris-tricine gels using a BioRad Mini Protean system (Schagger and von Jagow, 1987). For PAX-2 detection, P388 and IMCD cell lysates in loading buffer were resolved on 12.5% Tris-glycine gels (Laemmli, 1970). […]
The P388 cells were treated as described before, the lysates were resolved on Tris-tricine gels and the TPP-fluPNA conjugates were detected using a GelDoc fluorescence imager. […]

human fibroblasts = test: Confocal immunofluorescent microscopy of fixed fibroblasts; format: cell-based; details: 1 μM, 30 min, 1 h and up to 4 h
Method: For immunocytochemistry trypsinised human fibroblasts (5,000 cells per well) were plated onto 13 mm diameter glass coverslips in 24 well plates overnight. Following incubation for 4 h at 37° C. with 1 μM TPP-PNA conjugates, cells were fixed with 4% paraformaldehyde (PFH) in TBS for 30 min, washed with TBS and incubated with 10% FCS/0.1% Triton X-100/TBS (TBST) for 10 min. The IgG fraction of anti-triphenylphosphonium serum (1:500) was diluted in TBST, then added and incubated overnight at 4° C. The IgG fraction of preimmune serum was used as a control. After washing with TBS (3×5 min) the cells were incubated with anti-rabbit IgG Oregon green fluorophore-conjugated secondary antibody diluted 1:100 in TBS for 15 min in the dark. The cells were washed in TBS and incubated for another 15 min with streptavidin conjugated CY3 (1:200, Molecular Probes) in the dark, to detect biotin. Cells were then washed in TBS, mounted in DABCO/PVA medium (15 g PVA, 15 g 1,4-diazabicyclo (2,2,2) octane in 30% glucerol in 0.1 M Tris, pH 8.5) and mounted onto coverslips. […]
The localisation of TPP-PNA conjugate within human fibroblasts was also determined by fixing cells that had been incubated with TPP-PNA, PNA or without any additions for up to 4 h and visualising the localisation of the PNA by confocal immunofluorescent microscopy (FIG. 6). […]

TPP-lysPNA(HNF4-α): Lys-GTCCCAGACGGT-Cys-COOH PNA targeting mouse HNF4α mRNA, conjugated with TBTP
Exon 9-skipped splice variant RT-PCR product (HNF4α pre-mRNA; 1 μM in cell culture media for 70 h, no transfection reagent): A 352 bp RT-PCR product was observed | Exon 9-skipped splice variant RT-PCR product (HNF4α pre-mRNA; transfected using chloroquine): A 352 bp RT-PCR product was observed

TPP-fluPNA(PAX-2): Fluoroscein-XX-TTCACACCCCCGTGCC-X-Cys-CO2H PNA targeting PAX2 mRNA, disulfide linked to thiobutyltriphenylphosphonium (all peptide nucleic acid (PNA); 5' fluorescein via linkers, 3' linker-Cys disulfide-linked to triphenylphosphonium)
Duration of inhibition of PAX2 expression (PAX2 mRNA): 4 days | PAX2 protein expression (PAX2 mRNA): significant inhibition of PAX2 expression | General cell proliferation [1]: did not affect general cell proliferation

Fluoroscein-XX-TTCACACCCCCGTGCC-X-Cys-CO2H (5' fluorescein via linkers, 3' linker and cysteine, further chemistry not given here) [unmodified anti-PAX2 PNA, unconjugated fluoroscein-tagged PNA oligomer targeting human and mouse PAX2 mRNA, reference compound]
PAX2 protein expression (PAX2 mRNA): did not decrease PAX2 protein levels

thiobutyltriphenylphosphonium [TBTP]
Localisation of phosphonium cation, anti-phosphonium serum (P388 cells): detected in the mitochondrial fractions

Biotin-XX-GTTGGCTCTCT-X-Cys-CO2H [bioPNA]
Uptake of unconjugated PNA (human fibroblasts): uptake (red) only after 4 h

— patent publication US20080108545A1, “Peptide Nucleic Acid Conjugates and Uses Thereof” (UNIVERSITY OF OTAGO, priority 2003, published 2008)
